Experiment in all cases: NCI-60 cell line screen, 48 h
The subject of test [1] is SK-MEL-5 melanoma.
In test [2] the test system is HOP-62 NSCLC.
The test system of test [3] is NCI-H226 lung.
Test [4] deals with HT29 colon.
Test [5] concerns A498 renal.
Test [6] concerns HCC-2998 colon.
Test [7] has as its system K-562 leukemia.
Test [8] relates to SF-295 CNS.
Test [9] has as its system UACC-257 melanoma.
The test system of test [10] is MDA-MB-435.

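Method: 48-hour compound exposure of cells in 96-well plates, five concentrations, linear interpolation of endpoints. GI50 = concentration required for 50% inhibition of growth. Definition used: TGI = concentration required for complete inhibition of growth.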

Results on 13 compounds are retold here after PubChem BioAssay (NCI).

Consider `COc1ccc(/C(C)=N/NC(N)=S)c(OC)c1`, for which the TGI in test [1], in test [2], in [3], in test [4], in test [5] and in [6] was > 100 µM in each case. In addition, the TGI in test [7], in test [8] and in [9] was > 100 µM throughout.

Consider `Oc1cc2ccccc2cc1-c1n[nH]c(=S)n1-c1ccc(Cl)cc1`, for which the GI50 was 14.4 µM in [1]; 23.7 µM in test [3]; 24.6 µM in test [4]; 4.66 µM in test [10]; > 100 µM in test [7]; 13.1 µM in test [8]. For the same compound, the GI50 in [9] was 18.7 µM. In addition, the TGI in [1] was 38.2 µM; in [3] it was 85 µM; in test [4], 76.3 µM; in test [10], > 100 µM; in test [7], > 100 µM; in [8] it was > 100 µM. This compound displayed a TGI in [9] of 56.7 µM.

Consider `Cc1nn(-c2ccc(Br)cc2)c(C)c1CC(=O)c1cc(O)ccc1O`, for which the GI50 was 6.84 µM in test [1]; 7.69 µM in test [3]; 13.2 µM in test [4]; 7.18 µM in test [5]; 6.92 µM in test [10]; 3.02 µM in test [7]. The GI50 in test [8] is 14.9 µM; in test [9], 11.2 µM. Moreover, the TGI is 20.3 µM in test [1]; 19.3 µM in test [3]; 36.7 µM in test [4]; 47.3 µM in test [5]; > 50 µM in [10]; 29.5 µM in [7]. The TGI in [8] was 30.3 µM; in test [9], 26.6 µM.

Regarding `O=C1C(N2C(=O)c3ccccc3C2=O)CN1C(COCc1ccccc1)c1ccc(OCc2ccccc2)cc1` (centres undefined), the TGI in test [1], in [2], in test [3], in test [4], in [5] and in test [6] was > 100 µM each time. Moreover, the TGI in test [7], in [8] and in test [9] was > 100 µM each time.

Turning to `CN(C)/C(N)=N/C(N)=S`, the TGI in test [2], in test [3], in [4], in test [5], in [6] and in [7] was > 100 µM in each case. The TGI in [8] and in [9] was > 100 µM each time.

With `CCC(/C(=N\Nc1c(Cl)cc(Cl)cc1Cl)c1ccccc1)n1ccnc1C` (centres undefined), the TGI worked out at 21.2 µM in [1]; 35 µM in test [3]; 21.4 µM in test [4]; 29.2 µM in [5]; 15.7 µM in test [6]; 51.6 µM in test [7]. The values for the TGI in test [8] and in [9] were 24.7 µM and 28.3 µM, respectively.

Turning to `CC1=C(c2cc(C(=O)Nc3nccs3)nc(NC#N)n2)Sc2ccccc2N1`, the TGI in test [1], in test [2], in test [3], in test [4], in [5] and in [7] was > 100 µM in each case. The TGI in test [8] and in test [9] was > 100 µM throughout.

`O=C1C(Cl)=C(Nc2cccc(O)c2)C(=O)N1c1cccc(Cl)c1Cl`: the GI50 was 7.01 µM in [1]; 15.9 µM in test [2]; 18.5 µM in test [4]; 17.9 µM in test [10]; 13.5 µM in test [7]; 3.28 µM in [8]. Further, the TGI is 21.7 µM in test [1]; 62.9 µM in test [2]; 58.3 µM in [4]; 43.1 µM in test [10]; 29.6 µM in [7]; 25.2 µM in test [8].

Regarding `CC([O-])C(=O)[O-].NCC1CCC1CN.[Pt+4]` (centres undefined), the GI50 in test [1] is 7.41 µM; in test [2], > 10 µM; in test [3], > 10 µM; in test [4], > 10 µM; in test [6] it was > 10 µM; in [10], > 10 µM. The GI50 in [7], in test [8] and in test [9] was > 10 µM each time. The TGI in [1], in [2], in test [3], in test [4], in test [6] and in [10] was > 10 µM throughout. The TGI in test [7], in test [8] and in test [9] was > 10 µM in each case.

Regarding `COc1ccc(C(=O)O)c(Cc2ccc3ccccc3c2)c1`, the TGI in test [1], in test [2], in [3], in [4], in test [5] and in test [7] was > 100 µM throughout. Moreover, the TGI in test [8] and in test [9] was > 100 µM in each case.

`COC(=O)C1C2CCCN2OC1(C)CO` (centres undefined): the TGI in test [1], in test [2], in test [3], in [4], in test [5] and in [10] was > 100 µM throughout. In addition, the TGI in [7], in [8] and in test [9] was > 100 µM throughout.

As for `CC(=O)OCC1OC(Sc2ccccn2)C=CC1OC(C)=O` (centres undefined), the TGI in test [1], in test [2], in test [3], in [4], in test [5] and in [6] was > 100 µM each time. For the same compound, the TGI in test [7], in [8] and in test [9] was > 100 µM throughout.

With `CC(O[Si](C)(C)C)C1C=CC(C)n2c(=O)n(-c3ccccc3)c(=O)n21` (centres undefined), the TGI in [1], in test [2], in test [4], in test [6], in test [7] and in test [8] was > 100 µM in each case.
